Experiments:
[1] = ROS-generating activity in cell-free system (H2DCFDA, HRP); assay type: biochemical; conditions: for increase of OD value vs H2DCFDA+HRP reaction: SsnB 10 μM + H2DCFDA 25 μM + HRP 5 units/ml
Method: FIG. 2D and FIG. 2E illustrate the ROS generating capacity of SsnB evaluated in a cell-free system containing H2DCFDA (25 μM), horseradish peroxidase (HRP, 5 units/ml), SsnB (10 μM) and glutathione (GSH, 0.25 or 2.5 μM) alone or in various combinations. Optical density (O.D.) at 540 nm were taken at different time points and plotted.
In a reaction system, after the removal of acetate group by cellular esterases and oxidation by reactive oxygen species, the non-fluorescent carboxy-H2DCFDA dye is oxidized to fluorescent molecule carboxy-DCF. To measure the ROS-generating activity of SsnB, the oxidation of carboxy-H2DCFDA dye was monitored in a cell-free system containing carboxy-H2DCFDA dye, horseradish peroxidase (HRP) and SsnB at 540 nm. HRP was used to supply esterase since without esterase carboxy-H2DCFDA is not sensitive to oxidant. […] After addition of HRP (5 units/ml) in the reaction mixture containing SsnB (10 μM)+H2DCFDA dye (25 μM), the OD value increased by 2% in the first 240 sec and further increased by 8% after 15 min compared to H2DCFDA+HRP reaction, indicating the increased oxidation of H2DCFDA to the fluorescent compound.

[2] = test system: SK-N-BE(2) and SH-SY5Y cells; assay: Two layer soft agarose colony formation assay; assay type: cell-based, human; conditions: SsnB 10 μM, 45 days
Method: A two layer soft agarose assay system was used in these studies. Approximately 1×10^4 cells were suspended in 0.35% agarose in DMEM with 10% FBS, and were gently laid on the bottom agarose layer containing 0.8% agarose with DMEM+10% FBS in 35 mm^2 cell culture dishes. Once solidified, the dishes were incubated at 37° C. in a humidified chamber with 5% CO2. Next day, 500 μl of complete cell culture medium with respective concentrations of SsnB was added, and cells were allowed to grow for 45 days in an incubator chamber. Fresh medium with respective concentrations of SsnB was added to the dishes in every 5 days. Cells treated with equal volume of DMSO were used as control. At the end of experiments, cells were stained with 0.1% crystal violet and cell colonies (more than 15 cells per colony) were counted under the light microscope.
The anti-proliferative activity of SsnB to affects the tumor progression property of neuroblastoma cells was tested by performing two layer agarose gel colony formation assays. Agarose gel colony formation assay is an anchorage-independent in vitro cell transformation assay, and mimics the process of in vivo carcinogenesis. Neuroblastoma cells (N-myc amplified cell, SK-N-BE(2), and N-myc nonamplified cell, SH-SY5Y) were grown in agarose in presence or absence of SsnB (1 μM and 10 μM) and after 45 days the number of colonies was counted.

[3] = test system: SH-SY5Y and SK-N-BE(2) cells; assay: Hanging-drop assay for spheroid formation; assay type: cell-based, human; conditions: day 12
Method: 3-D in vitro hanging drop assay was carried out to detect the SsnB effect in neuroblastoma spheroid formation. Neuroblastoma cells were prepared as single cell suspension in complete culture medium (DMEM+10% FBS) without or with SsnB (1 and 10 μM). Twenty microliter drops of each prepared cell suspension containing 20,000 cells/drop were pipetted into the inner side of the lid of a 60 mm diameter tissue culture dish. The lid was gently inverted and placed on top of the culture dish filled with 5 ml of sterile 1×PBS to humidify the culture chamber. The drops were incubated under tissue culture conditions (at 37° C. and 5% CO2) allowing the cells to form aggregate at the base of the droplet. The cells in each droplet were photographed using Olympus SZX2 stereo microscope (Olympus America Inc., Center Valley, Pa.).
As SsnB inhibited the formation of neuroblastoma colony in anchorage-independent agarose gel assay, the ability of SsnB to inhibit the initiation of neuroblastoma tumors was tested in a hanging drop assay method. In the hanging drop assay the cells under the force of gravity and surface tension start accumulating at the bottom of the hanging drop and join together to form a spheroid. […]

[4] = test system: p53 in SH-SY5Y cells; assay: p53 expression by Western blotting; assay type: cell-based, human; conditions: SsnB 10 μM
Method: After treatment with SsnB, cells were collected, washed with 1×PBS, and lysed with 1× cell lysis buffer (Cell Signaling Technology, Danvers, Mass.) containing phenylmethylsulfonyl fluoride (PMSF) and protease inhibitors (aprotinin and leupeptin) for 30 min on ice, and centrifuged at 12000×rpm for 10 min at 4° C. Supernatant (total cell protein) was collected and stored at −80° C. Protein concentration was determined by bicinchoninic acid method using BCA protein assay kit (Pierce/ThermoScientific, Waltham, Mass.). Equal amount of proteins were diluted with 5× Laemmli samples loading buffer and boiled for five minutes. The proteins were subjected to sodium dodecyl sulfate (SDS)-polyacrylamide gel electrophoresis and analyzed by Western blots. Briefly, after electrophoresis, proteins were transferred on polyvinylidene difluoride (PVDF) membrane at 100 volt for 3 h in cold room. […] Signals were detected by chemiluminiscence detection kit (Pierce/Thermo Fisher Scientific, Rockford, Ill.). […]
At cellular level, mitochondria- or receptor (Fas/FasL)-mediated pathways activate caspase signaling cascade which in turn induces DNA damage and initiates programmed cell death (apoptosis). […] The number of cleaved caspase-3 positive cells were quantitated by ImageJ programme and plotted. […]

SMILES: O=c1occ2c3c(ccc(O)c13)Oc1ccc(O)cc1-2 [SsnB, 8,5′-dihydroxy-4-phenyl-5,2′-oxidoisocoumarin]
- increase of OD value vs H2DCFDA+HRP reaction ([1]; after 15 min): 8%
- increase of OD value vs H2DCFDA+HRP reaction ([1]; first 240 sec): 2%
- optical density at 540 nm ([1]; SsnB 10 μM + H2DCFDA 25 μM, without HRP): remained constant
- size of colonies ([2]; vs control and SsnB 1 μM): significantly smaller
- colony formation capability (number of colonies) ([2]; p<0.05 vs control): significantly inhibited the colony formation capability
- spheroid formation ([3]; SsnB 1 μM): compact cell clusters were formed
- spheroid formation ([3]; SsnB 10 μM): unable to aggregate to form compact spheroids
- p53 expression vs DMSO [4]: Increased expression of p53

Source: US9446019B2, “Sparstolonin B based pharmaceutical agent for neuroblastoma treatment” (University of South Carolina, priority 2013, dated 2016)
